From ChEMBL document CHEMBL1201862, “PubChem BioAssay data set” (2004)
Active and inactive are the calls of the source.

Assays:
[1] = molecular target: Dual specificity protein kinase CLK1 (Homo sapiens, UniProt P49759); test: CLK1 kinase inhibitors, off-target check, dose response, selectivity assay for Dyrk1A inhibitor project, biochemical, cherry-picked samples (AID 588811)
Caspase-3 [2] = molecular target: T1, Caspase-3 (Homo sapiens, UniProt P42574); test: SAR Analysis of small molecule inhibitors of Sentrin-specific proteases (SENPs) using a Caspase-3 Selectivity assay. [Related pubchem assays (depositor defined):AID2540, AID2599, AID434973, AID489001]; assay type: functional
T1 sequence (P42574 whole entry): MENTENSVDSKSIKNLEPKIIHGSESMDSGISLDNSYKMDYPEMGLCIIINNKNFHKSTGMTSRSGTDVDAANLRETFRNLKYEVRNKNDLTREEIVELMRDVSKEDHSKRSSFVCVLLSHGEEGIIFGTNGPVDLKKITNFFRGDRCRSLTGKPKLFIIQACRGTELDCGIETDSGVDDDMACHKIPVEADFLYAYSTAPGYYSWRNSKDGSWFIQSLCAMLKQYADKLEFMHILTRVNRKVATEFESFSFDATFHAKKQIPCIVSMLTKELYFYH

Caspase-3 [3] = molecular target: T1, Caspase-3; assay type: functional
[4] = molecular target: T2, Sentrin-specific protease 6 (Homo sapiens, UniProt Q9GZR1); assay type: functional
T2 sequence (Q9GZR1 whole entry): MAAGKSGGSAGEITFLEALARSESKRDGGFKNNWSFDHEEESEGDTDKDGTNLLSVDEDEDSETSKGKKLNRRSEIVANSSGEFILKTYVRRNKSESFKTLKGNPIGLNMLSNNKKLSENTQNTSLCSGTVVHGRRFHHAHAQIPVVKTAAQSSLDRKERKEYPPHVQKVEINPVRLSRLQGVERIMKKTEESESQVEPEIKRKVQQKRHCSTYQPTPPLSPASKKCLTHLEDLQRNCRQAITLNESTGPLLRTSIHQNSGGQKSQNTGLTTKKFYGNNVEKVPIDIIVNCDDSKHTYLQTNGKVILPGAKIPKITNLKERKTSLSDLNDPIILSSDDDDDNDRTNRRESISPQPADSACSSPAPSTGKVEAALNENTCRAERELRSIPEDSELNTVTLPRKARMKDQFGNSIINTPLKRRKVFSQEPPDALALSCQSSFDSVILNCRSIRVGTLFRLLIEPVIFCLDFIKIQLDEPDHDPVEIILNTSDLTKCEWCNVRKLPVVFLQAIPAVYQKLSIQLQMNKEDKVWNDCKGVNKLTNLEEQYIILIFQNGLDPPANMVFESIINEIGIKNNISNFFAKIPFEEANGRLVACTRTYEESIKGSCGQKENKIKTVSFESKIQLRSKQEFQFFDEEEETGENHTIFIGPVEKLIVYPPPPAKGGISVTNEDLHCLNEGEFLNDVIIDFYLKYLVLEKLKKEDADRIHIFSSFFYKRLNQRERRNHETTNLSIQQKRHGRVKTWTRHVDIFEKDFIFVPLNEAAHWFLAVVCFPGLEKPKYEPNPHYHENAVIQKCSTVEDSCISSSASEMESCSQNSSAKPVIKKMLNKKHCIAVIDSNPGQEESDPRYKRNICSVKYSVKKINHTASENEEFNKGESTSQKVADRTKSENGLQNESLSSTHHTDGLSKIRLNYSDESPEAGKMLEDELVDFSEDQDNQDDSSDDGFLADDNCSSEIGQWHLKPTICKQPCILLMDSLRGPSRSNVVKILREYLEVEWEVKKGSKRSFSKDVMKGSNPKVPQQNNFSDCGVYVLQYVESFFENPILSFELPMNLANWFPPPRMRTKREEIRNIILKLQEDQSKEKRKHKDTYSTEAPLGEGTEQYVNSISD

[5] = molecular target: T3, Polyadenylate-binding protein 1 (Homo sapiens, UniProt P11940); test: PABP1 MLLE–PAM2 interaction inhibitors, dose response, miRNA deadenylation inhibitor project, biochemical, fluorescence polarization, Cy5-PAM2 peptide, secondary (AID 602260); assay type: functional; conditions: read-out: IC50_Mean
T3 sequence (P11940 whole entry): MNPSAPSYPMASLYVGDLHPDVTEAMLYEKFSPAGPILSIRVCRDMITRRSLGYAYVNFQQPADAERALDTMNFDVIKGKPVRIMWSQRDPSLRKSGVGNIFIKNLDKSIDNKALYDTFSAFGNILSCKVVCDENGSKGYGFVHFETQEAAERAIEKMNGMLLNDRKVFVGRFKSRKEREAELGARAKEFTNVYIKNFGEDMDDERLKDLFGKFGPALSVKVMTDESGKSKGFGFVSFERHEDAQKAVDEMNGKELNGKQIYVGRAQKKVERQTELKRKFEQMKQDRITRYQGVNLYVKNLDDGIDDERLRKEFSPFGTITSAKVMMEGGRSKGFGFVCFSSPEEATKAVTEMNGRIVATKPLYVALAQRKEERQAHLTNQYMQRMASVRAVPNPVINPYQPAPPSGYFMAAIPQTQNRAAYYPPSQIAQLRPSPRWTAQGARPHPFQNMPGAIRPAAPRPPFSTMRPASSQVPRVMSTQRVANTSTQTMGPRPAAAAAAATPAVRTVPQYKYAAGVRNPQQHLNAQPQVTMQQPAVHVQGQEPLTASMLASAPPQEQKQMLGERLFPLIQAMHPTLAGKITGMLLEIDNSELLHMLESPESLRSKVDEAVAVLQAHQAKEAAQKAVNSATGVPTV

[6] = molecular target: T4, Sentrin-specific protease 7 (Homo sapiens, UniProt Q9BQF6); test: SENP7 protease inhibitors, SAR follow-up, biochemical, luminescence (AID 504497); assay type: functional
T4 sequence (Q9BQF6 whole entry): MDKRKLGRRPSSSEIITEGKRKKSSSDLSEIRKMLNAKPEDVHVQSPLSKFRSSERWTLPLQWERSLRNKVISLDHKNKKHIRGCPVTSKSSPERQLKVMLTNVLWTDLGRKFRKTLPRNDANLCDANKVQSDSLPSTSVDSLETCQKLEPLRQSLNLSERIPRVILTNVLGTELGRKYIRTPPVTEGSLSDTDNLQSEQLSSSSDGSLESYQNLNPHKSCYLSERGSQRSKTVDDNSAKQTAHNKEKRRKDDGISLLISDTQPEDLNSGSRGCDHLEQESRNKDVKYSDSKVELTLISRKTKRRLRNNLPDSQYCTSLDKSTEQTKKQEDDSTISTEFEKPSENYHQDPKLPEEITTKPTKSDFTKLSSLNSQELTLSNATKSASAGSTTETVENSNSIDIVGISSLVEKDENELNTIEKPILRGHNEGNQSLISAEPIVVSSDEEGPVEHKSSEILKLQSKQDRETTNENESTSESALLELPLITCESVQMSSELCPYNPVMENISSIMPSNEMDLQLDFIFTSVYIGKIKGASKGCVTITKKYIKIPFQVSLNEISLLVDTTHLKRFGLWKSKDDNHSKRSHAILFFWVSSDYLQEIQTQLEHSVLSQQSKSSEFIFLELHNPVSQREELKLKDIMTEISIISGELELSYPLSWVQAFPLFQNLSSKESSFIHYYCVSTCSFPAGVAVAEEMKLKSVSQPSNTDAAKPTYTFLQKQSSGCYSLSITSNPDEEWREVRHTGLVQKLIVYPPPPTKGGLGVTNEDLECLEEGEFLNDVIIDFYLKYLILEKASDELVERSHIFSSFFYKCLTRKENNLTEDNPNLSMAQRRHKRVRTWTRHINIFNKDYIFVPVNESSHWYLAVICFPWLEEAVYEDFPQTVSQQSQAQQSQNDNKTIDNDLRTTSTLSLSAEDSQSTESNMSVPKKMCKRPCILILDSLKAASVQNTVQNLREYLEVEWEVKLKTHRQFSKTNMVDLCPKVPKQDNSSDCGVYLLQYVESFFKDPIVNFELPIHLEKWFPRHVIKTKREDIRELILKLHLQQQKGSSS

[7] = molecular target: T3, Polyadenylate-binding protein 1; test: PABP1 MLLE–PAM2 binding inhibitor potency, dose response, biochemical, fluorescence polarization, FITC-PAM2 peptide (AID 602259); assay type: functional; conditions: read-out: IC50_Mean
[8] = molecular target: T4, Sentrin-specific protease 7; assay type: functional
[9] = molecular target: T2, Sentrin-specific protease 6; test: SAR Analysis of small molecule inhibitors of Sentrin-specific protease 6 (SENP6) using a Luminescent assay. [Related pubchem assays (depositor defined):AID2582, AID2599]; assay type: functional
[10] = molecular target: T5, Sentrin-specific protease 8 (Homo sapiens, UniProt Q96LD8); assay type: functional;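 note: luminescence read-out of SENP8 inhibition, dose-response confirmation following an ultra-high-throughput screen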
T5 sequence (Q96LD8 whole entry): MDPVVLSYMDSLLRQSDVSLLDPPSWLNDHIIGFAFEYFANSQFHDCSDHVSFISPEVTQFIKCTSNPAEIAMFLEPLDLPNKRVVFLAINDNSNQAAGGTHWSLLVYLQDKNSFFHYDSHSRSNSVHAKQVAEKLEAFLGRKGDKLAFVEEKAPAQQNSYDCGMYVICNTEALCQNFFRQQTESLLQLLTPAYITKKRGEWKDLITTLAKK

[11] = molecular target: Dual specificity tyrosine-phosphorylation-regulated kinase 1A (Rattus norvegicus, UniProt Q63470); assay type: biochemical, Homo sapiens
[12] = molecular target: T5, Sentrin-specific protease 8; test: SENP8 protease inhibitors, SAR follow-up, biochemical, luminescence (AID 504501); assay type: functional
[13] = molecular target: T6, Mannose-6-phosphate isomerase (Homo sapiens, UniProt P34949); test: human PMI inhibitors, high substrate, primary screen, biochemical, fluorescence intensity, high mannose 6-phosphate (AID 1220)
T6 sequence (P34949 whole entry): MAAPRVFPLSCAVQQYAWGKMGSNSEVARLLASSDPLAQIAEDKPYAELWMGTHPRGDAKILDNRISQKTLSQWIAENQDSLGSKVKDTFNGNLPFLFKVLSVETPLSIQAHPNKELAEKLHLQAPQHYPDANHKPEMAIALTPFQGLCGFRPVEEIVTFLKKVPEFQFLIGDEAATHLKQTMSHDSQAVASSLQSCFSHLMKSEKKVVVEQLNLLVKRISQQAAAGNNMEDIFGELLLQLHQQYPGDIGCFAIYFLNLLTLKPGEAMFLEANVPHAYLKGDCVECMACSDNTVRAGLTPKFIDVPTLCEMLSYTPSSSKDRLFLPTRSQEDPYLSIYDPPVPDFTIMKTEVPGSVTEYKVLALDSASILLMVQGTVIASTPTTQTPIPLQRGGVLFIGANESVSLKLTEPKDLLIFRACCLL

[14] = tested on: Streptococcus sp. 'group A'; test: growth inhibition of control SK(-) GAS strain, dose response, counter-screen for streptokinase expression inhibitor project, luminescence, kanamycin, BacTiterGlo, confirmation (AID 1900); assay type: functional, organism-based
Streptokinase A = molecular target: T7, Streptokinase A (Streptococcus pyogenes serotype M1, UniProt P10520); test: S. pyogenes streptokinase expression inhibitors, potency, dose response, plasminogen activation absorbance, OD405 (AID 1914); assay type: functional, Streptococcus pyogenes M1 GAS;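 note: secreted streptokinase activity via plasminogen activation per viability signal from cell pellet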
T7 sequence (P10520 whole entry): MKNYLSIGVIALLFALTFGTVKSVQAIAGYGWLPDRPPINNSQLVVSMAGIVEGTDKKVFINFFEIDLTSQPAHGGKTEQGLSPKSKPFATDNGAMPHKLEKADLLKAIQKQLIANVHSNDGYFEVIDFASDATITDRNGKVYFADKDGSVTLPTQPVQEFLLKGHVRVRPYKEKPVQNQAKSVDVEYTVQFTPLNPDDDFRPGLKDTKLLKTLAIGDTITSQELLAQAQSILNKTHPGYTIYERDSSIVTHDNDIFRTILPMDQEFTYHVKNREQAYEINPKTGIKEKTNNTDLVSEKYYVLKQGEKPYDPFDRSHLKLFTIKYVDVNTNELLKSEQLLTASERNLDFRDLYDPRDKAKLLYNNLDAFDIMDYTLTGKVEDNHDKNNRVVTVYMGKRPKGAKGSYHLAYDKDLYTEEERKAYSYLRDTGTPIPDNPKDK

Streptococcus = test: Group A Streptococcus viability loss, dose response, counter-screen for streptokinase expression inhibitor project, luminescence, BacTiterGlo (AID 1915); assay type: functional, organism-based;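 note: potency for reduction of bacterial viability or growth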
Bcl-2-like protein 10 = molecular target: T8, Bcl-2-like protein 10 (Homo sapiens, UniProt Q9HD36); test: Isothermal titration calorimetry (ITC) with Bcl-B and compounds active in primary screen. [Related pubchem assays (depositor defined):AID1693]; assay type: functional
T8 sequence (Q9HD36 whole entry): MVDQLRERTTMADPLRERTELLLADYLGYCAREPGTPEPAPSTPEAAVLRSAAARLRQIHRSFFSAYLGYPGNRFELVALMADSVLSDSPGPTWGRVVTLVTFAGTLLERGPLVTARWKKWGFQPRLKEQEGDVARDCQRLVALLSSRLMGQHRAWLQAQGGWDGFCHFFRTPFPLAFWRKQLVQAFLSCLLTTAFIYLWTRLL

Genome polyprotein = Genome polyprotein (dengue virus type 2, UniProt P29990); test: Dengue-2 NS5 methyltransferase inhibitors, primary screen, biochemical, confirmation dose response (AID 588689); assay type: functional
Genome polyprotein, sequence (P29990 2492-3391 limits assumed): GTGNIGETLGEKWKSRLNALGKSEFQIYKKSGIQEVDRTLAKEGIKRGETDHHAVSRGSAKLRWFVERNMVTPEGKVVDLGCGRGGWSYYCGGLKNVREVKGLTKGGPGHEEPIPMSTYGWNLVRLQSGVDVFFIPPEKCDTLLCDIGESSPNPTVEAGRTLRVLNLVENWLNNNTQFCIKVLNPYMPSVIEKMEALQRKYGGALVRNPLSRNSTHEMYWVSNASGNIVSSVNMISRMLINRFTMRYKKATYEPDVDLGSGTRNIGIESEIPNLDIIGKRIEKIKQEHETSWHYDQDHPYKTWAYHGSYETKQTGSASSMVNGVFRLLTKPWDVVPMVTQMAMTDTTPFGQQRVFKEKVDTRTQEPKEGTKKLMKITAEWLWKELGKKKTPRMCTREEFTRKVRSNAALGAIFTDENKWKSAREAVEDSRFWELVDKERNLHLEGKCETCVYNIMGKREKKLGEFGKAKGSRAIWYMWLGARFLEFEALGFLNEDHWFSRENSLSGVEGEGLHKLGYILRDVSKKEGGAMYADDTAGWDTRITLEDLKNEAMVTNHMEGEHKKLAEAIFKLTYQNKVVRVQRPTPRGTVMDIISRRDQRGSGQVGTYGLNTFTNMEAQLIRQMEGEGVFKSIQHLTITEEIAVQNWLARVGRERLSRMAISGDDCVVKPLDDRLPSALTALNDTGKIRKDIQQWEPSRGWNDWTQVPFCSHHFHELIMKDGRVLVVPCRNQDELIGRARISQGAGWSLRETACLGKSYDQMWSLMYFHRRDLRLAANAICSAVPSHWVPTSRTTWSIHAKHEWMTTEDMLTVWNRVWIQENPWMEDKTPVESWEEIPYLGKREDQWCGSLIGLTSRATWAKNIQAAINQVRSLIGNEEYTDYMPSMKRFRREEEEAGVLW

[15] = Fluorescence polarization-based biochemical high throughput dose response assay for activators of the Protein Kinase A-R2B (PKA-R2B) complex. [Related pubchem assays (depositor defined):AID504700, AID504704, AID504796, AID504797]
[16] = activation of PKA-R1A holoenzyme dissociation, dose response, counter-screen for PKA-R2B activator project, biochemical, Cy5-IP20 fluorescence polarization, 1536-well, triplicate (AID 504896)

Dual specificity protein kinase CLK1, sequence (P49759 whole entry): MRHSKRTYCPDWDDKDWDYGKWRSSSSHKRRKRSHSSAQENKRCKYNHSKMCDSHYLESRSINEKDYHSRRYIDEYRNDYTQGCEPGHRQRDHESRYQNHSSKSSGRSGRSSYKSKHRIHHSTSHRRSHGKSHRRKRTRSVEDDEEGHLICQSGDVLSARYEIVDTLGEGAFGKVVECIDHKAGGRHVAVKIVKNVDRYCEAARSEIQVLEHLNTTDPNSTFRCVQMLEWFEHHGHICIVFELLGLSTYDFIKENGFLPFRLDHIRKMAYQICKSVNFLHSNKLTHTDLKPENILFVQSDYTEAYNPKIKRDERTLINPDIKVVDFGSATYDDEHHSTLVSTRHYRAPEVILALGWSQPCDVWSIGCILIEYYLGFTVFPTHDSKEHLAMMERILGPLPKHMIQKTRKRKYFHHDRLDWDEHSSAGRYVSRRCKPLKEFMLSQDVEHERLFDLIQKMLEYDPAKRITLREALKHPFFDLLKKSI

## CSCC(=O)Nc1nc(-c2ccc3c(c2)OCCO3)cs1
[1]
  AC50: 8.63 µM (active)

## COc1ccc2c(C#N)c3ccccn3c2c1
Caspase-3 [2]
  IC50: 65.4 µM (active)
Caspase-3 [3]
  IC50: 54.8 µM (active)
[4]
  IC50: 16.6 µM (active)
[5]
  IC50: > 66 µM (inactive)
[6]
  IC50: > 99 µM (inactive)
[7]
  IC50: 21.2 µM (inactive)
[8]
  IC50: > 100 µM (inactive)
[9]
  IC50: > 99 µM (inactive)
[10]
  IC50: > 100 µM (inactive)
[11]
  AC50: 0.242 µM (active)
[12]
  IC50: > 99 µM (inactive)
[13]
  IC50: > 50 µM (not active)

## O=c1c2c(n3nnnc3n1Cc1ccccc1)-c1ccccc1CC21CCCC1
[14]
  EC50: 26.3 µM (active)
Streptokinase A
  EC50: 6.74 µM (active)
Streptococcus
  EC50: > 150 µM (not active)
Bcl-2-like protein 10
  IC50: 0.2 µM (active)

## CN(C)c1ccc(N=Nc2ccc(S(=O)(=O)O)cc2)c2ccccc12
Genome polyprotein
  IC50: 46.2 µM (active)
[15]
  EC50: 69 µM (inactive)
[16]
  EC50: > 114 µM (inactive)
